System: patients with cGVHD
Details: Cohort 3 400 mg QD

CC(C)NC(=O)COc1cccc(-c2nc(Nc3ccc4[nH]ncc4c3)c3ccccc3n2)c1 [Belumosudil, 2-{3-[4-(1H-indazol-5-ylamino)-2-quinazolinyl]phenoxy}-N-(propan-2-yl) acetamide]
3: Glucose urine present: # Events | Hypoxia: # Events | Insomnia: # Events | Myalgia: # Events
0: Fungal infection: # Events | Gamma-glutamyltransferase increased: # Events | Gastric ulcer: # Events | Genital infection fungal: # Events | Glaucoma: # Events | Grade ≥3 ALT/AST increased, No. (%) | Grade ≥3 Anemia, No. (%) | Graft versus host disease in gastrointestinal tract: # Events | Gynaecomastia: # Events | Hair growth abnormal: # Events | Hodgkin's disease recurrent: # Events | Hot flush: # Events | Hypertriglyceridaemia: # Events | Hypogonadism: # Events | Hypokalaemia: # Events | Hypothermia: # Events | Impaired healing: # Events | Influenza like illness: # Events | Irritability: # Events | Lacrimation increased: # Events | Leukaemia recurrent: # Events | Ligament sprain: # Events | Macular degeneration: # Events | Migraine: # Events | Nail disorder: # Events | Neck pain: # Events | Nephrotic syndrome: # Events | Nocturia: # Events | Obesity: # Events | Oedema: # Events | Oesophageal ulcer: # Events | Oral candidiasis: # Events | Orthopnoea: # Events | Osteonecrosis: # Events | Osteopenia: # Events | Osteoporosis: # Events | Overdose: # Events | Pericardial effusion: # Events | Peripheral coldness: # Events | Peripheral sensory neuropathy: # Events | Phlebitis: # Events | Platelet count decreased: # Events
2/21 (9.52%): Gastrooesophageal reflux disease: Affected/At Risk (%) | Hyponatraemia: Affected/At Risk (%) | Influenza: Affected/At Risk (%) | Muscular weakness: Affected/At Risk (%) | Photophobia: Affected/At Risk (%)
3/21 (14.29%): Hyperglycemia: Affected/At Risk (%) | Hyperkalaemia: Affected/At Risk (%) | Hyperuricaemia: Affected/At Risk (%) | Hypothyroidism: Affected/At Risk (%) | Hypoxia: Affected/At Risk (%) | Insomnia: Affected/At Risk (%) | Myalgia: Affected/At Risk (%)
6: Hypertension: # Events | Muscle spasms: # Events | Oedema peripheral: # Events
2 (10): Grade ≥3 Hyperglycemia, No. (%) | Grade ≥3 Hypoxia, No. (%) | Grade ≥3 Lung infection or pneumonia, No. (%)
9/21 (42.86%): Nausea: Affected/At Risk (%)
5: Hyperuricaemia: # Events | Pain in extremity: # Events
0/21 (0%): Fungal infection: Affected/At Risk (%) | Gamma-glutamyltransferase increased: Affected/At Risk (%) | Gastric ulcer: Affected/At Risk (%) | Genital infection fungal: Affected/At Risk (%) | Graft versus host disease in gastrointestinal tract: Affected/At Risk (%) | Gynaecomastia: Affected/At Risk (%) | Hair growth abnormal: Affected/At Risk (%) | Hodgkin's disease recurrent: Affected/At Risk (%) | Hot flush: Affected/At Risk (%) | Hypertriglyceridaemia: Affected/At Risk (%) | Hypogonadism: Affected/At Risk (%) | Hypokalaemia: Affected/At Risk (%) | Hypothermia: Affected/At Risk (%) | Impaired healing: Affected/At Risk (%) | Influenza like illness: Affected/At Risk (%) | Irritability: Affected/At Risk (%) | Lacrimation increased: Affected/At Risk (%) | Leukaemia recurrent: Affected/At Risk (%) | Ligament sprain: Affected/At Risk (%) | Macular degeneration: Affected/At Risk (%) | Migraine: Affected/At Risk (%) | Nail disorder: Affected/At Risk (%) | Neck pain: Affected/At Risk (%) | Nephrotic syndrome: Affected/At Risk (%) | Nocturia: Affected/At Risk (%) | Obesity: Affected/At Risk (%) | Oedema: Affected/At Risk (%) | Oesophageal ulcer: Affected/At Risk (%) | Oral candidiasis: Affected/At Risk (%) | Orthopnoea: Affected/At Risk (%) | Osteonecrosis: Affected/At Risk (%) | Osteopenia: Affected/At Risk (%) | Osteoporosis: Affected/At Risk (%) | Overdose: Affected/At Risk (%) | Pericardial effusion: Affected/At Risk (%) | Peripheral coldness: Affected/At Risk (%) | Peripheral sensory neuropathy: Affected/At Risk (%) | Phlebitis: Affected/At Risk (%) | Platelet count decreased: Affected/At Risk (%)
8: Headache: # Events | Hyperglycemia: # Events
2: Gastrooesophageal reflux disease: # Events | Haematuria: # Events | Hyponatraemia: # Events | Influenza: # Events | Muscular weakness: # Events | Neuropathy peripheral: # Events | Photophobia: # Events
1/21 (4.76%): Generalised oedema: Affected/At Risk (%) | Glucose urine present: Affected/At Risk (%) | Haematuria: Affected/At Risk (%) | Hordeolum: Affected/At Risk (%) | Hyperhidrosis: Affected/At Risk (%) | Hyperthyroidism: Affected/At Risk (%) | Hypoaesthesia: Affected/At Risk (%) | Hypocalcaemia: Affected/At Risk (%) | Hypomagnesaemia: Affected/At Risk (%) | Hypophosphataemia: Affected/At Risk (%) | Joint range of motion decreased: Affected/At Risk (%) | Leukocytosis: Affected/At Risk (%) | Limb injury: Affected/At Risk (%) | Muscle spasticity: Affected/At Risk (%) | Musculoskeletal chest pain: Affected/At Risk (%) | Nasal congestion: Affected/At Risk (%) | Neuropathy peripheral: Affected/At Risk (%) | Neutrophil count decreased: Affected/At Risk (%) | Non-cardiac chest pain: Affected/At Risk (%) | Oropharyngeal pain: Affected/At Risk (%) | Pain: Affected/At Risk (%) | Palpitations: Affected/At Risk (%) | Paraesthesia: Affected/At Risk (%)
1: Generalised oedema: # Events | Hordeolum: # Events | Hyperhidrosis: # Events | Hyperthyroidism: # Events | Hypoaesthesia: # Events | Hypocalcaemia: # Events | Hypomagnesaemia: # Events | Hypophosphataemia: # Events | Joint range of motion decreased: # Events | Leukocytosis: # Events | Limb injury: # Events | Muscle spasticity: # Events | Musculoskeletal chest pain: # Events | Nasal congestion: # Events | Neutrophil count decreased: # Events | Non-cardiac chest pain: # Events | Oropharyngeal pain: # Events | Pain: # Events | Palpitations: # Events | Paraesthesia: # Events | Pleural effusion: # Events
6/21 (28.57%): Headache: Affected/At Risk (%) | Muscle spasms: Affected/At Risk (%) | Oedema peripheral: Affected/At Risk (%)
4: Hyperkalaemia: # Events | Hypothyroidism: # Events
4 (19): Grade ≥3 Dyspnea, No. (%)
12: Nausea: # Events
4/21 (19.05%): Hypertension: Affected/At Risk (%) | Pain in extremity: Affected/At Risk (%)
14 (67): Grade ≥3 AE, No. (%)

Reference: patent US20260027116A1, “Methods of Treating Chronic Graft-Versus-Host Disease Following Allogeneic Hematopoietic Stem Cell Transplantation” (Kadmon Corporation, LLC, priority 2022, published 2026)
